{"source": "patent US12589086B2", "about": "“Compositions and methods for the treatment of primary biliary cholangitis” (Genfit, priority 2020, dated 2026)", "tested_on": "patients with PBC", "assay": "phase II study of elafibranor for the treatment of PBC (serum ALP, 12 weeks)", "format": "in vivo, human", "settings": "for treatment effect estimate vs placebo, relative change in serum ALP (supportive analysis): ANCOVA with baseline ALP as covariate; for treatment effect estimate vs placebo, relative change in serum ALP (primary efficacy analysis): non-parametric randomization-based ANCOVA with baseline ALP as covariate, p<0.001; for mean relative change (%) from baseline to Endpoint in serum ALP: placebo 3.2%", "method": "Elafibranor (2-(2,6-dimethyl-4-{3 [4-(methylsulfanyl)phenyl]-3-oxopropen-1-yl}phenoxy)-2-methylpropanoic acid) is a drug currently tested in a pivotal phase III study for the treatment of PBC. Elafibranor was also evaluated in a phase II study for the treatment of PBC. […] Elafibranor (2-(2,6-dimethyl-4-{3-[4-(methylsulfanyl)phenyl]-3-oxopropen-1-yl}phenoxy)-2-methylpropanoic acid) was supplied as 80 mg white to offwhite round coated tablets with no printed inscription. A placebo tablet (of the same size as the corresponding active tablet) to match elafibranor 80 mg was provided as a white to off-white round coated tablet with no printed inscription. The placebo tablet contained the same excipients as the active formulation as well as lactose monohydrate (which was used in place of the active ingredient). […] The treatment effect estimate was −52.0% (95% Cl [−62.5; −41.5]) for the elafibranor 80 mg treatment group and −43.9% (95% Cl [−55.7; −32.1]) for the elafibranor 120 mg treatment group (FIG. 1). The primary efficacy supportive analysis conducted using an ANCOVA with baseline ALP as a covariate was consistent with the primary efficacy analysis. The treatment effect estimate was −51.4% (95% Cl [−63.3; −39.5]) for the elafibranor 80 mg treatment group and −43.9% (95% Cl [−55.8; −31.9]) for the elafibranor 120 mg treatment group (FIG. 1).", "data": [{"smiles": "CSc1ccc(C(=O)C=Cc2cc(C)c(OC(C)(C)C(=O)O)c(C)c2)cc1", "note": "[elafibranor, 2-(2,6-dimethyl-4-{3-[4-(methylsulfanyl)phenyl]-3-oxopropen-1-yl}phenoxy)-2-methylpropanoic acid]", "values": [{"measurement": "absolute change from baseline in serum ALP vs placebo at Endpoint", "setting": "80 mg (p<0.001) and 120 mg treatment groups", "value": "statistically significantly different from placebo"}, {"measurement": "relative change from baseline in serum ALP vs placebo at Endpoint", "setting": "80 mg and 120 mg treatment groups", "value": "statistically significantly different from placebo"}, {"measurement": "mean ALP values from baseline through Week 12", "setting": "80 mg and 120 mg treatment groups, FIG. 2", "value": "declining mean ALP values"}, {"measurement": "mean relative changes (%) in ALP values from baseline through Week 12", "setting": "80 mg and 120 mg treatment groups, beginning at Week 2 up through Week 12, FIG. 3", "value": "decrease in ALP values over time"}, {"measurement": "treatment effect estimate vs placebo, relative change in serum ALP (supportive analysis)", "setting": "80 mg, 95% CI [−63.3, −39.5]", "value": "−51.4", "unit": "%"}, {"measurement": "treatment effect estimate vs placebo, relative change in serum ALP (primary efficacy analysis)", "setting": "80 mg, 95% CI [−62.5, −41.5]", "value": "−52.0", "unit": "%"}, {"measurement": "treatment effect estimate vs placebo, relative change in serum ALP (supportive analysis)", "setting": "120 mg, 95% CI [−55.8, −31.9]", "value": "−43.9", "unit": "%"}, {"measurement": "treatment effect estimate vs placebo, relative change in serum ALP (primary efficacy analysis)", "setting": "120 mg, 95% CI [−55.7, −32.1]", "value": "−43.9", "unit": "%"}, {"measurement": "reduction in plasma ALP levels from baseline compared to placebo", "setting": "PBC patients", "value": "consistent, statistically significant reduction"}, {"measurement": "mean relative change (%) from baseline to Endpoint in serum ALP", "setting": "elafibranor 80 mg treatment group, PBC patients", "value": "−48.3", "unit": "%"}, {"measurement": "mean relative change (%) from baseline to Endpoint in serum ALP", "setting": "elafibranor 120 mg treatment group, PBC patients", "value": "−40.6", "unit": "%"}, {"measurement": "safety and tolerability in patients", "setting": "in vivo", "value": "safe and well-tolerated"}]}]}
